Source: PubChem BioAssay (NCI)
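Step 1: Grow cells in 96-well plates. Step 2: Expose to compound for 48 hours at 5 concentrations. Step 3: Interpolate endpoints linearly; if unreached, use highest concentration. At the GI50, growth is halved. The concentration for full growth arrest is given as TGI.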

Key:
Experiment in all cases: NCI anticancer screen, dose series, 48 h; in the data active = GI50 below about 0.43 µM; inactive = the rest
COLO 205 colon = system: COLO 205 colon
EKVX NSCLC = system: EKVX NSCLC
U251 CNS = system: U251 CNS
OVCAR-5 ovarian = system: OVCAR-5 ovarian
SN12C renal = system: SN12C renal
LOX IMVI melanoma = system: LOX IMVI melanoma
SK-MEL-5 melanoma = system: SK-MEL-5 melanoma
SR leukemia = system: SR leukemia
RPMI-8226 leukemia = system: RPMI-8226 leukemia
HT29 colon = system: HT29 colon
HCT-116 colon = system: HCT-116 colon
HOP-92 NSCLC = system: HOP-92 NSCLC
SK-OV-3 ovarian = system: SK-OV-3 ovarian
HOP-62 NSCLC = system: HOP-62 NSCLC
NCI-H226 lung = system: NCI-H226 lung
DU-145 prostate = system: DU-145 prostate
TK-10 renal = system: TK-10 renal
IGROV1 ovarian = system: IGROV1 ovarian
SK-MEL-28 melanoma = system: SK-MEL-28 melanoma
HCC-2998 colon = system: HCC-2998 colon
UACC-257 melanoma = system: UACC-257 melanoma
SF-539 CNS = system: SF-539 CNS
SNB-19 CNS = system: SNB-19 CNS
UACC-62 melanoma = system: UACC-62 melanoma
BT-549 breast = system: BT-549 breast
SF-268 CNS = system: SF-268 CNS
M14 melanoma = system: M14 melanoma
MCF7 breast = system: MCF7 breast
RXF 393 renal = system: RXF 393 renal
NCI/ADR-RES ovarian = system: NCI/ADR-RES ovarian
A498 renal = system: A498 renal
MDA-MB-231 breast = system: MDA-MB-231 breast
786-0 renal = system: 786-0 renal
UO-31 renal = system: UO-31 renal
PC-3 prostate = system: PC-3 prostate
OVCAR-3 ovarian = system: OVCAR-3 ovarian
NCI-H460 lung = system: NCI-H460 lung
KM12 colon = system: KM12 colon
CCRF-CEM leukemia = system: CCRF-CEM leukemia
MDA-MB-435 = system: MDA-MB-435
K-562 leukemia = system: K-562 leukemia
SF-295 CNS = system: SF-295 CNS
ACHN renal = system: ACHN renal
T-47D breast = system: T-47D breast
SNB-75 CNS = system: SNB-75 CNS
HL-60(TB) leukemia = system: HL-60(TB) leukemia
SW-620 colon = system: SW-620 colon
SK-MEL-2 melanoma = system: SK-MEL-2 melanoma
MALME-3M melanoma = system: MALME-3M melanoma
HCT-15 colon = system: HCT-15 colon
NCI-H522 lung = system: NCI-H522 lung
A549 NSCLC = system: A549 NSCLC
OVCAR-4 ovarian = system: OVCAR-4 ovarian
NCI-H23 lung = system: NCI-H23 lung
OVCAR-8 ovarian = system: OVCAR-8 ovarian
CAKI-1 renal = system: CAKI-1 renal
MOLT-4 leukemia = system: MOLT-4 leukemia
HS 578T breast = system: HS 578T breast

Oc1cccc(-c2nc(-c3ccccc3)[nH]c2-c2ccncc2)c1
24.2 µM: TGI (HOP-92 NSCLC)
14 µM: TGI (UACC-257 melanoma)
18.9 µM: TGI (SK-MEL-2 melanoma)
24.3 µM: TGI (T-47D breast)
> 23.7 µM: TGI (SNB-75 CNS)
> 18.5 µM: TGI (SK-MEL-28 melanoma)
17.4 µM: TGI (A498 renal)
14.7 µM: TGI (SK-MEL-5 melanoma) | TGI (RXF 393 renal)
> 23.4 µM: TGI (SW-620 colon)
8.01 µM: TGI (MALME-3M melanoma)
12.2 µM: TGI (COLO 205 colon)
inactive: GI50 (COLO 205 colon) 4.88 µM | GI50 (EKVX NSCLC) > 25 µM | GI50 (U251 CNS) 17.1 µM | GI50 (OVCAR-5 ovarian) 16.9 µM | GI50 (SN12C renal) 15.9 µM | GI50 (LOX IMVI melanoma) 8.82 µM | GI50 (SK-MEL-5 melanoma) 3.59 µM | GI50 (SR leukemia) 11.3 µM | GI50 (RPMI-8226 leukemia) 13.5 µM | GI50 (HT29 colon) 7.46 µM | GI50 (HCT-116 colon) 9.91 µM | GI50 (HOP-92 NSCLC) 5.98 µM | GI50 (SK-OV-3 ovarian) 9.29 µM | GI50 (HOP-62 NSCLC) 16.8 µM | GI50 (NCI-H226 lung) > 19 µM | GI50 (DU-145 prostate) 16.3 µM | GI50 (TK-10 renal) 16.5 µM | GI50 (IGROV1 ovarian) 10.4 µM | GI50 (SK-MEL-28 melanoma) 2.03 µM | GI50 (HCC-2998 colon) 11.7 µM | GI50 (UACC-257 melanoma) 2.97 µM | GI50 (SF-539 CNS) 17.6 µM | GI50 (SNB-19 CNS) > 25 µM | GI50 (UACC-62 melanoma) 1.59 µM | GI50 (BT-549 breast) > 25 µM | GI50 (SF-268 CNS) 24.3 µM | GI50 (M14 melanoma) 1.71 µM | GI50 (MCF7 breast) 12.8 µM | GI50 (RXF 393 renal) 5 µM | GI50 (NCI/ADR-RES ovarian) > 25 µM | GI50 (A498 renal) 6.07 µM | GI50 (MDA-MB-231 breast) 9.59 µM | GI50 (786-0 renal) 9.11 µM | GI50 (UO-31 renal) 10.1 µM | GI50 (PC-3 prostate) > 20.8 µM | GI50 (OVCAR-3 ovarian) 18.6 µM | GI50 (NCI-H460 lung) 11.6 µM | GI50 (KM12 colon) 13 µM | GI50 (CCRF-CEM leukemia) 17.1 µM | GI50 (MDA-MB-435) 4.31 µM | GI50 (K-562 leukemia) 11.7 µM | GI50 (SF-295 CNS) 14.7 µM | GI50 (ACHN renal) 9.08 µM | GI50 (T-47D breast) 9.31 µM | GI50 (SNB-75 CNS) 9.93 µM | GI50 (HL-60(TB) leukemia) 7.77 µM | GI50 (SW-620 colon) 9.39 µM | GI50 (SK-MEL-2 melanoma) 6.91 µM | GI50 (MALME-3M melanoma) 0.719 µM | GI50 (HCT-15 colon) 7.36 µM | GI50 (NCI-H522 lung) 11.8 µM | GI50 (A549 NSCLC) 14.6 µM | GI50 (OVCAR-4 ovarian) 10.5 µM | GI50 (NCI-H23 lung) 12.4 µM | GI50 (OVCAR-8 ovarian) > 25 µM | GI50 (CAKI-1 renal) 18.7 µM | GI50 (MOLT-4 leukemia) 24.9 µM | GI50 (HS 578T breast) 10.2 µM
12.6 µM: TGI (M14 melanoma)
> 20.3 µM: TGI (HCT-15 colon)
> 25 µM: TGI (EKVX NSCLC) | TGI (U251 CNS) | TGI (OVCAR-5 ovarian) | TGI (SN12C renal) | TGI (LOX IMVI melanoma) | TGI (SR leukemia) | TGI (RPMI-8226 leukemia) | TGI (HT29 colon) | TGI (HCT-116 colon) | TGI (SK-OV-3 ovarian) | TGI (HOP-62 NSCLC) | TGI (NCI-H226 lung) | TGI (DU-145 prostate) | TGI (TK-10 renal) | TGI (IGROV1 ovarian) | TGI (HCC-2998 colon) | TGI (SF-539 CNS) | TGI (SNB-19 CNS) | TGI (UACC-62 melanoma) | TGI (BT-549 breast) | TGI (SF-268 CNS) | TGI (MCF7 breast) | TGI (NCI/ADR-RES ovarian) | TGI (MDA-MB-231 breast) | TGI (786-0 renal) | TGI (UO-31 renal) | TGI (PC-3 prostate) | TGI (OVCAR-3 ovarian) | TGI (NCI-H460 lung) | TGI (KM12 colon) | TGI (CCRF-CEM leukemia) | TGI (MDA-MB-435) | TGI (K-562 leukemia) | TGI (SF-295 CNS) | TGI (ACHN renal) | TGI (NCI-H522 lung) | TGI (A549 NSCLC) | TGI (OVCAR-4 ovarian) | TGI (NCI-H23 lung) | TGI (OVCAR-8 ovarian) | TGI (CAKI-1 renal) | TGI (MOLT-4 leukemia) | TGI (HS 578T breast)
19.4 µM: TGI (HL-60(TB) leukemia)
